Among the test systems are Malme-3M; SK-MEL-28; NCI-H23; COLO 205; ACHN; UACC-62; Hs-578T; K562; HCC 2998; MDA-MB-435; OVCAR-5; BT-549; LOX IMVI; RPMI-8226; SK-MEL-5; KM12; 786-0; NCI-H226; LXFL 529; HCT-15.
Common to all, as to test: inhibition of tumour cell growth, NCI panel, 48 h

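Cells were grown in 96-well plates and exposed to each compound for 48 hours at five concentrations; endpoints were interpolated linearly between bracketing concentrations, or set to the highest concentration if not reached. At the GI50, growth is halved.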 Calls of active or inactive are those of the source. No stated cut-off is given here; in the data, active = GI50 up to about 1.1 µM and inactive = higher. Some results are limits rather than exact numbers.

With `C=C1C(C)C2C(Cc3ccccc3)NC(=O)C23C(OC(C)=O)C=CC(C)(O)C(=O)C(C)C/C=C/C3C1O` (stereo not drawn), the GI50 is 30.5 µM (inactive) in the experiment on Malme-3M; 2.47 µM (inactive) with SK-MEL-28; 12.9 µM (inactive) in the experiment with NCI-H23; 0.535 µM (active) in the experiment with COLO 205; 0.889 µM (active) with ACHN; 3.36 µM (inactive) with UACC-62. The GI50 is 0.0652 µM (active) in the experiment with Hs-578T; 33.1 µM (inactive) in the experiment with K562; 21.7 µM (inactive) in the experiment with HCC 2998; 51.1 µM (inactive) with MDA-MB-435; 68.9 µM (inactive) in the experiment on OVCAR-5; 0.407 µM (active) in the experiment on BT-549. The GI50 in the experiment with LOX IMVI is 0.101 µM (active); in the experiment with RPMI-8226, 5.98 µM (inactive); in the experiment on SK-MEL-5 it was 0.76 µM (active); in the experiment with KM12, 90.8 µM (inactive); with 786-0 it was 0.311 µM (active); in the experiment on NCI-H226, 3.85 µM (inactive). The GI50 in the experiment on LXFL 529 is 3.14 µM (inactive).
For `Cc1cc2c3c(coc3c1-c1c(C)cc3c4c(coc14)C(=O)C(O)=C3C(C)C)C(=O)C(O)=C2C(C)C`, the GI50 with Malme-3M was 15.6 µM (inactive); with SK-MEL-28, 10.1 µM (inactive); with NCI-H23, 3.53 µM (inactive); in the experiment with COLO 205, 2.41 µM (inactive); in the experiment with ACHN it was 3.51 µM (inactive); in the experiment with UACC-62, 3.73 µM (inactive). Besides, the GI50 in the experiment on HCT-15 was 3.94 µM; in the experiment on K562, 3.26 µM (inactive); in the experiment with HCC 2998, 3.68 µM (inactive); in the experiment on OVCAR-5, 17.9 µM (inactive); in the experiment with LOX IMVI, 5.7 µM (inactive); in the experiment on RPMI-8226 it was 4.68 µM (inactive). The GI50 in the experiment with SK-MEL-5 was 15.1 µM (inactive); in the experiment with KM12 it was 4.3 µM (inactive); with 786-0 it was 10.1 µM (inactive); with NCI-H226 it was 10.1 µM (inactive); in the experiment on LXFL 529, 3.77 µM (inactive).
As for `CC(C)CC(NC(=O)c1cccc(O)c1O)C(=O)NCc1cc(CNC(=O)C(CC(C)C)NC(=O)c2cccc(O)c2O)cc(CNC(=O)C(CC(C)C)NC(=O)c2cccc(O)c2O)c1` (stereo not drawn), the GI50 was 19.6 µM (inactive) in the experiment on Malme-3M; 13.7 µM (inactive) with SK-MEL-28; 15.6 µM (inactive) with NCI-H23; 16.6 µM (inactive) in the experiment with COLO 205; 22.2 µM (inactive) in the experiment with ACHN; 4.49 µM (inactive) in the experiment on UACC-62. The GI50 in the experiment on HCT-15 was 23.1 µM; with K562, 18.9 µM (inactive); in the experiment on HCC 2998, 7.8 µM (inactive); in the experiment with OVCAR-5, 10.8 µM (inactive); with LOX IMVI, 8.63 µM (inactive); with RPMI-8226, 4.14 µM (inactive). For the same molecule, the GI50 in the experiment with SK-MEL-5 is 12.8 µM (inactive); with KM12 it was 13.8 µM (inactive); in the experiment with 786-0 it was 42 µM (inactive); in the experiment with NCI-H226 it was 14.7 µM (inactive); with LXFL 529, 2.82 µM (inactive).
On to `CCSC(SCC)=C1C(=O)N(c2ccccc2)N=C1C`, for which the GI50 in the experiment with Malme-3M is 10.4 µM (inactive); with SK-MEL-28 it was 12.9 µM (inactive); in the experiment with NCI-H23 it was 18.3 µM (inactive); with COLO 205 it was 2.27 µM (inactive); in the experiment with ACHN, 15.7 µM (inactive); in the experiment on UACC-62, 13.7 µM (inactive). Further, the GI50 in the experiment with HCT-15 is 12.3 µM; in the experiment with K562, 5.71 µM (inactive); with HCC 2998, 14.5 µM (inactive); with OVCAR-5, 15.9 µM (inactive); in the experiment with LOX IMVI, 12.4 µM (inactive); in the experiment with RPMI-8226, 7.67 µM (inactive). Moreover, the GI50 was 18.3 µM (inactive) with SK-MEL-5; 19.3 µM (inactive) in the experiment on KM12; 13.1 µM (inactive) in the experiment on 786-0; 15.7 µM (inactive) with NCI-H226; 10 µM (inactive) with LXFL 529.
On to `N#C/C(=C(/S)Nc1ccccc1)c1nc2ccccc2[nH]1`, for which the GI50 with Malme-3M, with SK-MEL-28, in the experiment with NCI-H23, in the experiment on COLO 205, in the experiment with ACHN and in the experiment on UACC-62 was > 10 µM (inactive) in each case. Also, the GI50 is above 10 µM with HCT-15; > 10 µM (inactive) in the experiment on K562; > 10 µM (inactive) with HCC 2998; > 10 µM (inactive) with OVCAR-5; > 10 µM (inactive) in the experiment with LOX IMVI; > 10 µM (inactive) in the experiment with RPMI-8226. Moreover, the GI50 with SK-MEL-5, with KM12, in the experiment with 786-0, in the experiment with NCI-H226 and with LXFL 529 was > 10 µM (inactive) throughout.
As for `CCOP1(=O)C=CC(Cl)=C(C)C1` (stereo not drawn), the GI50 with Malme-3M is 14.3 µM (inactive); with SK-MEL-28, 16.2 µM (inactive); in the experiment with NCI-H23, 13 µM (inactive); with COLO 205 it was 19.1 µM (inactive); with ACHN, 8.63 µM (inactive); with UACC-62, 15 µM (inactive). In addition, the GI50 in the experiment on HCT-15 was 13.7 µM; with K562, 5.06 µM (inactive); in the experiment with HCC 2998, 15.9 µM (inactive); with OVCAR-5, 24.2 µM (inactive); with LOX IMVI, 19.2 µM (inactive); with RPMI-8226 it was 6.82 µM (inactive). Besides, the GI50 was 17.7 µM (inactive) in the experiment with SK-MEL-5; 18.3 µM (inactive) with KM12; 15.6 µM (inactive) in the experiment on 786-0; > 100 µM (inactive) with NCI-H226; 12.4 µM (inactive) in the experiment with LXFL 529.
Regarding `Cc1ccc(NC(=O)CC/C(CC(=O)c2ccc(Cl)cc2)=N\NC(=O)C(=O)NN)cc1C`, the GI50 with Malme-3M, in the experiment with SK-MEL-28, in the experiment on NCI-H23, in the experiment with COLO 205, in the experiment on ACHN and in the experiment with UACC-62 was > 100 µM (inactive) each time. The GI50 was above 100 µM with HCT-15; > 100 µM (inactive) with K562; > 100 µM (inactive) with HCC 2998; > 100 µM (inactive) in the experiment with OVCAR-5; > 100 µM (inactive) with LOX IMVI; > 100 µM (inactive) with RPMI-8226. For the same molecule, the GI50 in the experiment on SK-MEL-5, in the experiment on KM12, in the experiment on 786-0, in the experiment on NCI-H226 and with LXFL 529 was > 100 µM (inactive) in each case.
Turning to `Nc1cccc(S(=O)(=O)NCC(=O)O)c1`, the GI50 with Malme-3M, in the experiment on SK-MEL-28, in the experiment on NCI-H23, with COLO 205, with ACHN and in the experiment on UACC-62 was > 100 µM (inactive) throughout. Besides, the GI50 in the experiment on HCT-15 was above 100 µM; in the experiment on K562 it was > 100 µM (inactive); with HCC 2998, > 100 µM (inactive); in the experiment on OVCAR-5 it was > 100 µM (inactive); in the experiment on LOX IMVI, > 100 µM (inactive); in the experiment with RPMI-8226 it was > 100 µM (inactive). For the same molecule, the GI50 in the experiment with SK-MEL-5, in the experiment on KM12, with 786-0, in the experiment with NCI-H226 and in the experiment on LXFL 529 was > 100 µM (inactive) each time.

(Values after ChEMBL document CHEMBL1201862, “PubChem BioAssay data set” (2004).)
